Experimental data as given in patent publication US9731001B2, “Three-dimensional cavities of dendritic cell immunoreceptor (DCIR), compounds binding thereto and therapeutic applications related to inhibition of human immunodeficiency virus type-1 (HIV-1)” (priority 2011, dated 2017).

Tests used:
HIV-1 (NL4-3) = test: HIV-1 binding/entry on H2O2-treated (apoptotic) CD4TL (p24); assay type: cell-based; details: CD4TL treated with 30 μM H2O2 16 h; NL4-3 1 h; FIG. 8 panel A
Method: FIGS. 8A and 8B are bar graphs showing the impact of DCIR inhibitors on HIV-1 transmission by apoptotic CD4^+ T cells. Target CD4^+ T cells (1×10^6) were treated for 16 h with H2O2 (30 μM) to induce the surface expression of DCIR. Cells were treated with site A inhibitors (1 and 4) or site B inhibitors (1 and 2) or vehicle (DMSO). Panel A: Cells were next exposed to NL4-3 (100 ng/ml of p24) for 1 h at 37° C., extensively washed to remove unadsorbed virions before assessing p24 content. Panel B: Cells were first incubated with NL4-3 (100 ng/ml of p24) for 2 h at 37° C., washed extensively to remove unadsorbed virions and cultured in complete RPMI-1640 supplemented with rhIL-2 for the time indicated. Cell-free supernatants were then collected and assayed for p24 content. Data shown correspond to the means±sem of 3 independent experiments performed in triplicate for panel A and the means±SEM of 2 independent experiments for panel B. The asterisks denotes statistically significant data (*, P<0.05; **, P<0.01; ***, P<0.001).
Apoptosis was induced in CD4TL activated with 30 μM H2O2 for 16 h before performing the following experimental procedures. To assay binding/entry, cells (1×10^6) were incubated for 60 min at 37° C. with NL4-3 (100 ng of p24). After three extensive washes with PBS to remove un-adsorbed virus, HIV-1 binding was quantified by estimating p24 content. […]

HIV-1 (NL4-3BalEnv) [1] = test: HIV replication in polarized Th17 CD4T cells (p24); assay type: cell-based; details: 10 μM, 3, 7 and 10 days of incubation
Method: (§1) FIGS. 13A and 13B are a bar graphs showing impact of the DCIR-EPS inhibitor (Cpd B2) on HIV replication by activated Th17 polarized CD4T cells, according to Example 8. Polarized CD4 Th17 cells (FIG. 13A) and PHA/IL-2 activated CD4T cells (FIG. 13B) were either untreated or treated with 10 μM of DCIR-EPS inhibitor (Cpd B2) for 10 min at 37° C. Cells were then exposed to NL4-3BalEnv for 2 hrs. After three washes with PBS to remove non-adsorbed virus, cells were cultured during 10 days. Viral replication was quantified by measuring the HIV-p24 content in culture supernatants. Data represent means±SD of triplicate samples from the same patient. Asterisks denote statistically significant differences (**, P<0.01), (*, P<0.05).
(§2) It was assessed whether the DCIR inhibitor (Compound B2) could reduce viral production. Polarized Th17 CD4T cells (FIG. 13A) and PHA/IL-2 activated CD4T cells (FIG. 13B) were pretreated or not with DCIR inhibitor (Cpd B2) before being put into contact with NL4-3BalEnv. Cells were washed and incubated for 10 days and then p24 content was measured. […] Prevention of Th17 infection could be contributed to maintain an adequate intestinal homeostasis.

HIV-1 (NL4-3BalEnv) [2] = test: HIV replication in PHA/IL-2 activated CD4T cells (p24); assay type: cell-based; details: 10 μM
Method: as §1, §2

Polarized CD4 Th17 cells = test: Toxicity by MTT assay, polarized CD4 Th17 cells; assay type: cell-based, human; details: Th17 CD4T cells; 10 uM; 10 days
Method: (§3) FIGS. 14A-14F are a bar graphs showing the impact of the DCIR-EPS inhibitor (Cpd B2) on viability and apoptosis of TH17 polarized CD4 T cells or PHA-L/activated CD4T cells according to Example 8. Polarized CD4 TH17 cells (left panels) or PHA-L/IL-2 activated CD4 T cells (right panels) were either untreated or treated with 10 μM of DCIR-EPS inhibitor for 10 min at 37° C. Cells were then contacted with NL4-3BalEnv for 2 hrs and washed three times with PBS to remove non-adsorbed virus. Cells were then incubated for 10 days and toxicity was measured using the MTT assay (upper panels). In parallel, cells were incubated for 24 hrs and stained with Z-Vad-FMK FITC Abs to measure apoptosis) (middle panels) or with DCIR Abs lower panels).
(§4) After observing the inhibition of p24 content in Th17 cells by the DCIR inhibitor (Cpd B2), the impact of the DCIR inhibitor on cell viability and apoptosis was determined (FIG. 14). Polarized CD4 Th17 cells (FIG. 14A, 14C, 14E) or PHA-L/IL-2 CD4T cells (FIGS. 14B, 14D, 14F) were either untreated (DMSO) or treated with 10 uM of DCIR inhibitor for 10 minutes at 37° C. and then incubated with NL4-3BalEnv or mock virus for 2 hours. […] DCIR expression on Th17 CD4 T cells and PHA-L/IL-2 activated CD4 T cells was measured with or without treatment with the DCIR inhibitor (FIGS. 14E, 14F). […]

[3] = tested on: PHA-L/IL-2 activated CD4 T cells; test: Toxicity by MTT assay, PHA-L/IL-2 activated CD4 T cells; assay type: cell-based, human; details: 10 uM, 10 days
Method: as §3, §4

Th17 CD4 T cells = test: Apoptosis (Z-Vad-FMK FITC), Th17 CD4 T cells; assay type: cell-based, human; details: 10 uM, 24 hrs
Method: as §3, §4

PHA-L/IL-2 CD4 T cells = test: Apoptosis (Z-Vad-FMK FITC), PHA-L/IL-2 CD4 T cells; assay type: cell-based, human; details: 10 uM, 24 hrs
Method: as §3, §4

DCIR [4] = test: DCIR expression on Th17 CD4 T cells; assay type: cell-based, human; details: 10 uM
Method: as §3, §4

DCIR [5] = test: DCIR expression on PHA-L/IL-2 activated CD4 T cells; assay type: cell-based, human; details: 10 uM
Method: as §3, §4

SMILES	decrease of HIV-1 attachment to H2O2 treated cells (HIV-1 (NL4-3))	p24 content (HIV-1 (NL4-3BalEnv) [1])	p24 content (HIV-1 (NL4-3BalEnv) [2]; after 3 and 7 days)	p24 content (HIV-1 (NL4-3BalEnv) [2]; after 10 days)	toxic effect (MTT assay) (Polarized CD4 Th17 cells)	toxic effect (MTT assay) [3]	apoptosis (Th17 CD4 T cells)	apoptosis (PHA-L/IL-2 CD4 T cells)	DCIR expression (DCIR [4])	DCIR expression (DCIR [5])
O=C(/C=C/C=C/c1ccccc1)c1ccccc1 [Compound A1, 1,5-diphenyl-2,4-pentadien-1-one]	about 50%									
O=C(c1ccccc1)c1cc2ccccc2o1 [Compound B1, 1-benzofuran-2-yl(phenyl)methanone]	~40%									
Cc1ccc(/N=[N+](\[O-])c2ccc(C)cc2)cc1 [Compound B2, 1-methyl-4-[(4-methylphenyl)-NNO-azoxy]benzene]		significantly reduced p24 content	non-significant trend for reduction	significant reduction	did not have a toxic effect	did not have a toxic effect	did not have any impact on apoptosis	underwent less apoptosis	no difference in DCIR expression	marked reduction in DCIR expression
